According to patent publication US9670227B2, “Thienopyrimidine derivatives, a process for their preparation and pharmaceutical compositions containing them” (LES LABORATOIRES SERVIER, priority 2013, dated 2017):

Tests used:
Mcl-1 protein = Mcl-1 protein (UniProtKB primary accession number: Q07820) (Homo sapiens, UniProt Q07820); experiment: Inhibition of Mcl-1 by fluorescence polarisation, Method 1; assay type: binding; details: fluorescence polarisation test; Method 2 values are underlined in the patent (underlining not visible here); read-out: IC50 (M) Mcl-1 FP
In short: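 Binding was measured as fluorescence polarisation of a fluorescein-labelled ligand (1 nM) displaced from Mcl-1 (5 nM), both final. Compounds ran as 11-point series with final DMSO at 5%.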

[1] = system: H929 multiple myeloma tumour line; experiment: In vitro cytotoxicity, Microculture Tetrazolium Assay; assay type: cell-based; details: Homo sapiens, NCI-H929, 48 h, H929 cells, 48 hours exposure, MTT; read-out: IC50 (μM) MTT H929
Procedure: The cytotoxicity studies were carried out on the H929 multiple myeloma tumour line.
The cells are distributed onto microplates and exposed to the test compounds for 48 hours.

Chain of Mcl-1 protein (Q07820 whole entry): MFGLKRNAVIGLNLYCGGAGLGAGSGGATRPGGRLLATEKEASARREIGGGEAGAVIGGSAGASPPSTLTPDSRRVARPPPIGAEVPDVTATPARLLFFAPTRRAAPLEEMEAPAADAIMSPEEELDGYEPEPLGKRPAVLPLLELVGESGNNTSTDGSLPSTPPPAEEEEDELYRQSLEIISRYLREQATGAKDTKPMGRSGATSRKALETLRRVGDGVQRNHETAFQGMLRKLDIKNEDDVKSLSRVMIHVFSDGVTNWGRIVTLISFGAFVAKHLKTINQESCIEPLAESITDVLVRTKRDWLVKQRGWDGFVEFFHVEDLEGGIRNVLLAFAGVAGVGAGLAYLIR

IC50 (Mcl-1 protein) [M] | SMILES | IC50 [1] [µM]
1.2e-08 | Cc1c(-c2c(-c3ccco3)sc3ncnc(OC(Cc4ccccc4OCc4cc5ccccc5cn4)C(=O)O)c23)ccc(OCCN2CCN(C)CC2)c1Cl [Example 230, (2R)-2-{[(5Sa)-5-{3-chloro-2-methyl-4-[2-(4-methylpiperazin-1-yl)ethoxy]phenyl}-6-(furan-2-yl)thieno[2,3-d]pyrimidin-4-yl]oxy}-3-[2-(isoquinolin-3-ylmethoxy)phenyl]propanoic acid] | 0.312
1e-08 | Cc1c(-c2c(-c3ccco3)sc3ncnc(OC(Cc4ccccc4OCc4ccc(Cl)cn4)C(=O)O)c23)ccc(OCCN2CCN(C)CC2)c1Cl [Example 231, (2R)-2-{[(5Sa)-5-{3-chloro-2-methyl-4-[2-(4-methylpiperazin-1-yl)ethoxy]phenyl}-6-(furan-2-yl)thieno[2,3-d]pyrimidin-4-yl]oxy}-3-{2-[(5-chloropyridin-2-yl)methoxy]phenyl}propanoic acid] | 0.116
9e-09 | Cc1c(-c2c(-c3ccco3)sc3ncnc(OC(Cc4ccccc4OCc4ccc(F)cn4)C(=O)O)c23)ccc(OCCN2CCN(C)CC2)c1Cl [Example 232, (2R)-2-{[(5Sa)-5-{3-chloro-2-methyl-4-[2-(4-methylpiperazin-1-yl)ethoxy]phenyl}-6-(furan-2-yl)thieno[2,3-d]pyrimidin-4-yl]oxy}-3-{2-[(5-fluoropyridin-2-yl)methoxy]phenyl}propanoic acid] | 0.046
3.4e-09 | COc1ccc(COc2ccccc2CC(Oc2ncnc3sc(-c4ccco4)c(-c4ccc(OCCN5CCN(C)CC5)c(Cl)c4C)c23)C(=O)O)nc1 [Example 233, (2R)-2-{[(5Sa)-5-{3-chloro-2-methyl-4-[2-(4-methylpiperazin-1-yl)ethoxy]phenyl}-6-(furan-2-yl)thieno[2,3-d]pyrimidin-4-yl]oxy}-3-{2-[(5-methoxypyridin-2-yl)methoxy]phenyl}propanoic acid] | 0.099
1.1e-08 | Cc1c(-c2c(-c3ccco3)sc3ncnc(OC(Cc4ccccc4OCc4ccc5ccccc5n4)C(=O)O)c23)ccc(OCCN2CCN(C)CC2)c1Cl [Example 234, (2R)-2-{[(5Sa)-5-{3-chloro-2-methyl-4-[2-(4-methylpiperazin-1-yl)ethoxy]phenyl}-6-(furan-2-yl)thieno[2,3-d]pyrimidin-4-yl]oxy}-3-[2-(quinolin-2-ylmethoxy)phenyl]propanoic acid] | 0.135
1.5e-08 | Cc1c(-c2c(-c3ccco3)sc3ncnc(OC(Cc4ccccc4OCc4cccc(N5CCCC5)n4)C(=O)O)c23)ccc(OCCN2CCN(C)CC2)c1Cl [Example 237, (2R)-2-{[(5Sa)-5-{3-chloro-2-methyl-4-[2-(4-methylpiperazin-1-yl)ethoxy]phenyl}-6-(furan-2-yl)thieno[2,3-d]pyrimidin-4-yl]oxy}-3-(2-{[6-(pyrrolidin-1-yl)pyridin-2-yl]methoxy}phenyl)propanoic acid] | 0.186
5.9e-09 | COc1cccc(COc2ccccc2CC(Oc2ncnc3sc(-c4ccco4)c(-c4ccc(OCCN5CCN(C)CC5)c(Cl)c4C)c23)C(=O)O)n1 [Example 238, (2R)-2-{[(5Sa)-5-{3-chloro-2-methyl-4-[2-(4-methylpiperazin-1-yl)ethoxy]phenyl}-6-(furan-2-yl)thieno[2,3-d]pyrimidin-4-yl]oxy}-3-{2-[(6-methoxypyridin-2-yl)methoxy]phenyl}propanoic acid] | 0.077
1.1e-08 | Cc1c(-c2c(-c3ccco3)sc3ncnc(OC(Cc4ccccc4OCC4CCCC4)C(=O)O)c23)ccc(OCCN2CCN(C)CC2)c1Cl [Example 239, (2R)-2-{[(5Sa)-5-{3-chloro-2-methyl-4-[2-(4-methylpiperazin-1-yl)ethoxy]phenyl}-6-(furan-2-yl)thieno[2,3-d]pyrimidin-4-yl]oxy}-3-[2-(cyclopentylmethoxy)phenyl]propanoic acid] | 0.55
7.2e-09 | Cc1c(-c2c(-c3ccco3)sc3ncnc(OC(Cc4ccccc4OCc4ccccc4)C(=O)O)c23)ccc(OCCN2CCN(C)CC2)c1Cl [Example 240, (2R)-3-[2-(benzyloxy)phenyl]-2-{[(5Sa)-5-{3-chloro-2-methyl-4-[2-(4-methylpiperazin-1-yl)ethoxy]phenyl}-6-(furan-2-yl)thieno[2,3-d]pyrimidin-4-yl]oxy}propanoic acid] | 0.225

The remaining lines, values behind:

SMILES | IC50 (Mcl-1 protein) [M] | IC50 [1] [µM]
Cc1c(-c2c(-c3ccco3)sc3ncnc(OC(Cc4ccccc4OCc4cc(-c5ccccc5)nn4C)C(=O)O)c23)ccc(OCCN2CCN(C)CC2)c1Cl [Example 227, (2R)-2-{[(5Sa)-5-{3-chloro-2-methyl-4-[2-(4-methylpiperazin-1-yl)ethoxy]phenyl}-6-(furan-2-yl)thieno[2,3-d]pyrimidin-4-yl]oxy}-3-{2-[(1-methyl-3-phenyl-1H-pyrazol-5-yl)methoxy]phenyl}propanoic acid] | 2e-08 | 0.192
Cc1c(-c2c(-c3ccco3)sc3ncnc(OC(Cc4ccccc4OCc4cc(-c5ccco5)nn4C)C(=O)O)c23)ccc(OCCN2CCN(C)CC2)c1Cl [Example 228, (2R)-2-{[(5Sa)-5-{3-chloro-2-methyl-4-[2-(4-methylpiperazin-1-yl)ethoxy]phenyl}-6-(furan-2-yl)thieno[2,3-d]pyrimidin-4-yl]oxy}-3-(2-{[3-(furan-2-yl)-1-methyl-1H-pyrazol-5-yl]methoxy}phenyl)propanoic acid] | 2.2e-08 | 0.166
Cc1c(-c2c(-c3ccco3)sc3ncnc(OC(Cc4ccccc4OCC4CC4)C(=O)O)c23)ccc(OCCN2CCN(C)CC2)c1Cl [Example 229, (2R)-2-{[(5Sa)-5-{3-chloro-2-methyl-4-[2-(4-methylpiperazin-1-yl)ethoxy]phenyl}-6-(furan-2-yl)thieno[2,3-d]pyrimidin-4-yl]oxy}-3-[2-(cyclopropylmethoxy)phenyl]propanoic acid] | 4.5e-09 | 0.134
Cc1cccc(COc2ccccc2CC(Oc2ncnc3sc(-c4ccco4)c(-c4ccc(OCCN5CCN(C)CC5)c(Cl)c4C)c23)C(=O)O)n1 [Example 235, (2R)-2-{[(5Sa)-5-{3-chloro-2-methyl-4-[2-(4-methylpiperazin-1-yl)ethoxy]phenyl}-6-(furan-2-yl)thieno[2,3-d]pyrimidin-4-yl]oxy}-3-{2-[(6-methylpyridin-2-yl)methoxy]phenyl}propanoic acid] | 5.1e-09 | 0.098
Cc1c(-c2c(-c3ccco3)sc3ncnc(OC(Cc4ccccc4OCc4cccc(Cl)n4)C(=O)O)c23)ccc(OCCN2CCN(C)CC2)c1Cl [Example 236, (2R)-2-{[(5Sa)-5-{3-chloro-2-methyl-4-[2-(4-methylpiperazin-1-yl)ethoxy]phenyl}-6-(furan-2-yl)thieno[2,3-d]pyrimidin-4-yl]oxy}-3-{2-[(6-chloropyridin-2-yl)methoxy]phenyl}propanoic acid] | 7.4e-09 | 0.137
Cc1c(-c2c(-c3ccco3)sc3ncnc(OC(Cc4ccccc4OCc4ccccn4)C(=O)O)c23)ccc(OCCN2CCN(C)CC2)c1Cl [Example 241, (2R)-2-{[(5Sa)-5-{3-chloro-2-methyl-4-[2-(4-methylpiperazin-1-yl)ethoxy]phenyl}-6-(furan-2-yl)thieno[2,3-d]pyrimidin-4-yl]oxy}-3-[2-(pyridin-2-ylmethoxy)phenyl]propanoic acid] | 5.5e-09 | 0.074
